Source: patent publication US20140088052A1, “CHALCONE DERIVATIVES AS NRF2 ACTIVATORS” (THE JOHNS HOPKINS UNIVERSITY, priority 2011, published 2014)

How the values were obtained:
OVA-induced asthma = OVA-induced asthma mouse model; type: in vivo; design: dose or concentration left out as unconfirmed; settings: mice, every other day during sensitization and challenge, prophylactic mode
Procedure: Mice were sensitized by intraperitoneal injection (day 0, day 14), and challenged intranasally, with OVA (day 21 to day 24). […] 24 h after the last dose of OVA challenge, airway inflammation (FIG. 16A) and airway hyperresponsiveness (AHR) (FIG. 16B) were assessed.

Nrf2 = assay: In vivo potency to activate Nrf2: GCLM and NQO1 expression in mouse small intestine; design: species or system mice (C57BL/6); settings: mice, single dose 50 mg/kg by gavage, 24 h
Procedure: Mice (n=4) were fed with vehicle (DCP-10% DMSO+10% Cremophor+80% phosphate buffered saline) or chalcone derivatives or sulforaphane (50 mg/kg body weight) by gavage, and the small intestines were harvested 24 hours later. The expression of Nrf2-regulated genes GCLM and NQO1 was analyzed in the tissues by qRT-PCR as a surrogate marker of Nrf2 activity. β-actin was used for normalization. Data are representative of three independent experiments. Values shown are mean±SD of triplicate wells (P≦0.05);
The potency of the 8 lead chalcones identified in the in vitro screening to activate Nrf2 pathway were evaluated in mouse models. First, various formulations to dissolve the compounds were evaluated, and the DCP (10% DMSO+10% Cremophor EL+80% phosphate buffered saline) formulation offered the maximum solubility for delivery of these compounds by oral route. Mice (C57BL/6) were administrated with a single dose of vehicle or test compound(s) or sulforaphane as the positive control at a dose of 50 mg/kg body weight by gavage and small intestines were harvested 24 h later. The expression of Nrf2-regulated genes GCLM and NQO1 was analyzed in the tissue by qRT-PCR. All the eight compounds tested increased the expression of GCLM and NQO1 in small intestine. […] The expression of GCLM and NQO1 in the small intestine of mice treated with 2b was 6-fold and 10-fold higher compared to vehicle, respectively. Similarly, the expression of GCLM and NQO1 in the small intestine treated with 2b was 3-fold and 5-fold higher compared to sulforaphane, respectively.
All experiments in mice were performed in accordance with the standards established by the U.S. Animal Welfare Acts, set forth in NIH guidelines and the Policy and Procedures Manual of the Johns Hopkins University Animal Care and Use Committee. C57BL/6 mice (male, 7 weeks) were maintained on AIN 76A diet (Harlan Tekland, Madison, Wis.) and water ad libitum and housed at a temperature (range, 20-23° C.) under 12 h light/dark cycles. The mice were treated with chalcone analogs (50 mg/kg body weight) or vehicle or sulforaphane as a positive control by gavage. After 24 h treatment, the small intestines were harvested and stored at −80° C. until analysis.
Total RNA was extracted from cells/tissue using Qiagen RNeasy kit (Qiagen Corporation, Valencia, Calif.) and reverse transcription was performed by using random hexamers and MultiScribe reverse transcriptase according to the manufacturer's recommendations (Applied Biosystems, Foster City, Calif., USA). Quantitative real-time RT-PCR analyses of Nrf2, NQO1, HO1, and GCLM were performed by using Assay-on-Demand primers and probe sets from Applied Biosystems. Assays were performed using the ABI 7000 Taqman system (Applied Biosystems, Foster City, Calif.). β-actin was used for normalization.

## COc1ccccc1C(=O)/C=C/c1ccccc1C(F)(F)F [Compound 2b, (E)-1-(2-methoxyphenyl)-3-(2-(trifluoromethyl)phenyl)prop-2-en-1-one]
OVA-induced asthma
  allergen-induced asthma (airway inflammation and airway hyper-responsiveness): protected the mice from allergen-induced asthma
Nrf2
  expression of GCLM in the small intestine, compared to sulforaphane: 3 fold
  expression of GCLM in the small intestine, compared to vehicle: 6 fold
  expression of NQO1 in the small intestine, compared to sulforaphane: 5 fold
  expression of NQO1 in the small intestine, compared to vehicle: 10 fold
Nrf2; in words
  expression of GCLM and NQO1 in small intestine (Nrf2 activity): most potent inducer of Nrf2 activity
